US20090304625A1, “MODULATORS OF CARDIAC CELL HYPERTROPHY AND HYPERPLASIA” (priority 2006, published 2009)

Assays:
tumor angiogenesis = conditions: mouse tumor xenograft models; cited from earlier work
[1] = system: human umbilical vein endothelial cells; conditions: in culture, cited from earlier work
[2] = system: subcutaneous xenograft tumors; conditions: cited from earlier work; for growth of tumor cells grown as subcutaneous xenografts: athymic mice
[3] = system: tumor cells grown in culture; conditions: cited from earlier work
mast cells (MCs) = assay: Mast cell density in LV of WT mice treated with cromolyn; type: in vivo, mouse; conditions: cromolyn 60 mg/kg/day
Text: (§1) Induction of pressure overload: At eight weeks of age, WT or Kit^w/Kit^w-v mice were subjected to suprarenal aortic constriction (SAC) to induce hypertension and, thus, pressure overload, or to sham operation, as previously described (M. Li et al. (2004)). One group (both SAC and sham-operated animals) was allowed to recover from surgery for 2 days and animals surviving this peri-operative period were then followed for survival over the next 28 days. A second group were sacrificed at 3, 7 or 14 days after SAC, and a third group was treated with the mast cell stabilizer, sodium chromoglycate (60 mg/kg/day, intraperitoneal, osmotic minipump) for one week before and then for the 7 days after surgery, at which time they were sacrificed.

c-kit+ CSCs = assay: c-kit+ cardiac stem cell numbers in LV of 7-day-SAC WT mice; type: in vivo, mouse; conditions: cromolyn 60 mg/kg/day started 7 days before SAC, n=5
Text: as §1, with “sacrificed. […] There are several different but overlapping types of CSCs, which are grouped according to cell surface markers, e.g., ckit+, Sca1+, MDR1+, isl1+, e-kit+ CSCs differentiated into cardiomyocytes contributing to repair of a damaged heart. […] In the W/W^v- and WT-SAC LV myocardium, c-kit^+ CSCs occurred individually, in pairs or in large clusters. c-kit^+ CSC clusters were not seen in the LVs of WT- or […] were rare in WT-SAC mice. Compared to sham controls, 7 days of SAC increased c-kit^+ CSCs 19-fold in the […]<0.001; FIG. 6A). Compared to the WT-SAC LV, the increase was 5.5-fold (P<0.01; FIG. 6A). […]” for “sacrificed.”

Row | Compound | tumor angiogenesis in vivo (tumor angiogenesis) | VEGF- and FGF-induced proliferation of human umbilical vein endothelial cells ([1]; VEGF- and FGF-induced) | growth of tumor cells grown as subcutaneous xenografts [2] | regression of established xenograft tumors ([2]; mice) | growth of tumor cells grown in culture [3] | reduction of MC density (mast cells (MCs)) | MC density (mast cells (MCs); n=4) | c-kit+ CSCs (c-kit+ CSCs) | VEGF-induced proliferation of human umbilical vein endothelial cells ([1]; VEGF-induced)
1 | Cc1[nH]c(/C=C2\C(=O)Nc3ccccc32)c(C)c1CCC(=O)O [SU6668] | inhibit tumor angiogenesis in vivo | inhibits | inhibit the growth | causes regression | neither compound potently inhibits | – | – | – | –
2 | O=C(O)c1cc(=O)c2c(OCC(O)COc3cccc4oc(C(=O)O)cc(=O)c34)cccc2o1 [cromolyn, sodium chromoglycate] | – | – | – | – | – | approximately 80% | 0.45±0.2 MCs/mm^2 | 38±3 CSCs/mm^2 | –
3 | Cc1cc(C)c(/C=C2\C(=O)Nc3ccccc32)[nH]1 [SU5416] | inhibit tumor angiogenesis in vivo | – | inhibit the growth | – | neither compound potently inhibits | – | – | – | inhibits
